Test results reported in PubChem BioAssay (NCI).
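Test compounds were applied to cells in 96-well plates for 48 hours at 5 doses. TGI: concentration producing complete growth inhibition.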

Tests used:
Assay in all cases: NCI tumour cell line growth inhibition, 48 h
786-0 renal = system: 786-0 renal
A498 renal = system: A498 renal
A549 NSCLC = system: A549 NSCLC
ACHN renal = system: ACHN renal
CAKI-1 renal = system: CAKI-1 renal
CCRF-CEM leukemia = system: CCRF-CEM leukemia
COLO 205 colon = system: COLO 205 colon
DLD-1 colon = system: DLD-1 colon
DMS 114 small cell lung = system: DMS 114 small cell lung
EKVX NSCLC = system: EKVX NSCLC
HCC-2998 colon = system: HCC-2998 colon
HCT-116 colon = system: HCT-116 colon
HCT-15 colon = system: HCT-15 colon
HOP-18 NSCLC = system: HOP-18 NSCLC
HOP-62 NSCLC = system: HOP-62 NSCLC
HOP-92 NSCLC = system: HOP-92 NSCLC
HT29 colon = system: HT29 colon
IGROV1 ovarian = system: IGROV1 ovarian
K-562 leukemia = system: K-562 leukemia
KM12 colon = system: KM12 colon
KM20L2 colon = system: KM20L2 colon
LOX IMVI melanoma = system: LOX IMVI melanoma
LXFL 529 NSCLC = system: LXFL 529 NSCLC
M14 melanoma = system: M14 melanoma
MALME-3M melanoma = system: MALME-3M melanoma
MOLT-4 leukemia = system: MOLT-4 leukemia
NCI-H23 lung = system: NCI-H23 lung
NCI-H460 lung = system: NCI-H460 lung
NCI-H522 lung = system: NCI-H522 lung
OVCAR-3 ovarian = system: OVCAR-3 ovarian
OVCAR-4 ovarian = system: OVCAR-4 ovarian
OVCAR-5 ovarian = system: OVCAR-5 ovarian
OVCAR-8 ovarian = system: OVCAR-8 ovarian
RPMI-8226 leukemia = system: RPMI-8226 leukemia
RXF 393 renal = system: RXF 393 renal
SF-268 CNS = system: SF-268 CNS
SF-295 CNS = system: SF-295 CNS
SF-539 CNS = system: SF-539 CNS
SK-MEL-2 melanoma = system: SK-MEL-2 melanoma
SK-MEL-28 melanoma = system: SK-MEL-28 melanoma
SK-MEL-5 melanoma = system: SK-MEL-5 melanoma
SK-OV-3 ovarian = system: SK-OV-3 ovarian
SN12C renal = system: SN12C renal
SNB-19 CNS = system: SNB-19 CNS
SNB-75 CNS = system: SNB-75 CNS
SNB-78 CNS = system: SNB-78 CNS
SW-620 colon = system: SW-620 colon
TK-10 renal = system: TK-10 renal
U251 CNS = system: U251 CNS
UACC-257 melanoma = system: UACC-257 melanoma
UACC-62 melanoma = system: UACC-62 melanoma
UO-31 renal = system: UO-31 renal
XF 498 CNS = system: XF 498 CNS
DMS 273 small cell lung = system: DMS 273 small cell lung
HL-60(TB) leukemia = system: HL-60(TB) leukemia
M19-MEL melanoma = system: M19-MEL melanoma
NCI-H226 lung = system: NCI-H226 lung
SR leukemia = system: SR leukemia

CCCOP1(=O)C=CC(Cl)=C(C)C1 (stereo not drawn)
TGI (786-0 renal): 76 µM | TGI (A498 renal): > 100 µM | TGI (A549 NSCLC): > 100 µM | TGI (ACHN renal): > 66.5 µM | TGI (CAKI-1 renal): > 95.9 µM | TGI (CCRF-CEM leukemia): 19.7 µM | TGI (COLO 205 colon): 33.9 µM | TGI (DLD-1 colon): 47.9 µM | TGI (DMS 114 small cell lung): 89.3 µM | TGI (EKVX NSCLC): > 88 µM | TGI (HCC-2998 colon): > 100 µM | TGI (HCT-116 colon): 33.5 µM | TGI (HCT-15 colon): 39.7 µM | TGI (HOP-18 NSCLC): > 100 µM | TGI (HOP-62 NSCLC): > 100 µM | TGI (HOP-92 NSCLC): > 100 µM | TGI (HT29 colon): > 100 µM | TGI (IGROV1 ovarian): > 100 µM | TGI (K-562 leukemia): > 31.6 µM | TGI (KM12 colon): 50.4 µM | TGI (KM20L2 colon): > 100 µM | TGI (LOX IMVI melanoma): > 100 µM | TGI (LXFL 529 NSCLC): > 61.1 µM | TGI (M14 melanoma): > 61.3 µM | TGI (MALME-3M melanoma): 52.1 µM | TGI (MOLT-4 leukemia): 22.2 µM | TGI (NCI-H23 lung): > 100 µM | TGI (NCI-H460 lung): > 100 µM | TGI (NCI-H522 lung): 31.6 µM | TGI (OVCAR-3 ovarian): > 75.2 µM | TGI (OVCAR-4 ovarian): > 100 µM | TGI (OVCAR-5 ovarian): > 100 µM | TGI (OVCAR-8 ovarian): 47.5 µM | TGI (RPMI-8226 leukemia): 60.1 µM | TGI (RXF 393 renal): 33.4 µM | TGI (SF-268 CNS): > 100 µM | TGI (SF-295 CNS): > 100 µM | TGI (SF-539 CNS): > 68.2 µM | TGI (SK-MEL-2 melanoma): > 89.5 µM | TGI (SK-MEL-28 melanoma): 42.8 µM | TGI (SK-MEL-5 melanoma): > 100 µM | TGI (SK-OV-3 ovarian): > 100 µM | TGI (SN12C renal): > 100 µM | TGI (SNB-19 CNS): > 100 µM | TGI (SNB-75 CNS): > 100 µM | TGI (SNB-78 CNS): > 100 µM | TGI (SW-620 colon): 42.2 µM | TGI (TK-10 renal): > 100 µM | TGI (U251 CNS): > 100 µM | TGI (UACC-257 melanoma): 64.3 µM | TGI (UACC-62 melanoma): 52.2 µM | TGI (UO-31 renal): > 100 µM | TGI (XF 498 CNS): > 93.1 µM

O=C(Nc1nc2ncn(CCNCCn3cnc4nc(NC(=O)c5ccccc5)[nH]c(=O)c43)c2c(=O)[nH]1)c1ccccc1
TGI (786-0 renal): > 100 µM | TGI (A498 renal): > 100 µM | TGI (A549 NSCLC): > 100 µM | TGI (ACHN renal): > 100 µM | TGI (CAKI-1 renal): > 100 µM | TGI (CCRF-CEM leukemia): > 100 µM | TGI (COLO 205 colon): > 100 µM | TGI (DLD-1 colon): > 100 µM | TGI (DMS 273 small cell lung): > 100 µM | TGI (EKVX NSCLC): > 100 µM | TGI (HCC-2998 colon): > 100 µM | TGI (HCT-116 colon): > 100 µM | TGI (HCT-15 colon): > 100 µM | TGI (HL-60(TB) leukemia): > 100 µM | TGI (HOP-18 NSCLC): > 100 µM | TGI (HOP-62 NSCLC): > 100 µM | TGI (HOP-92 NSCLC): > 100 µM | TGI (HT29 colon): > 100 µM | TGI (IGROV1 ovarian): > 100 µM | TGI (K-562 leukemia): > 100 µM | TGI (KM12 colon): > 100 µM | TGI (KM20L2 colon): > 100 µM | TGI (LOX IMVI melanoma): > 100 µM | TGI (LXFL 529 NSCLC): > 100 µM | TGI (M14 melanoma): > 100 µM | TGI (M19-MEL melanoma): > 100 µM | TGI (MALME-3M melanoma): > 100 µM | TGI (MOLT-4 leukemia): > 100 µM | TGI (NCI-H226 lung): > 100 µM | TGI (NCI-H23 lung): > 100 µM | TGI (NCI-H460 lung): > 100 µM | TGI (NCI-H522 lung): > 100 µM | TGI (OVCAR-3 ovarian): > 100 µM | TGI (OVCAR-4 ovarian): > 100 µM | TGI (OVCAR-5 ovarian): > 100 µM | TGI (OVCAR-8 ovarian): > 100 µM | TGI (RPMI-8226 leukemia): > 100 µM | TGI (RXF 393 renal): > 100 µM | TGI (SF-268 CNS): > 100 µM | TGI (SF-295 CNS): > 100 µM | TGI (SF-539 CNS): > 100 µM | TGI (SK-MEL-2 melanoma): > 100 µM | TGI (SK-MEL-28 melanoma): > 100 µM | TGI (SK-MEL-5 melanoma): > 100 µM | TGI (SK-OV-3 ovarian): > 100 µM | TGI (SN12C renal): > 100 µM | TGI (SNB-19 CNS): > 100 µM | TGI (SNB-75 CNS): > 100 µM | TGI (SNB-78 CNS): > 100 µM | TGI (SW-620 colon): > 100 µM | TGI (TK-10 renal): > 100 µM | TGI (U251 CNS): > 100 µM | TGI (UACC-257 melanoma): > 100 µM | TGI (UACC-62 melanoma): > 100 µM | TGI (UO-31 renal): > 100 µM | TGI (XF 498 CNS): > 100 µM

NC1=NS(=O)(=O)Nc2nc(-c3ccccc3)c(-c3ccccc3)nc21
TGI (786-0 renal): > 100 µM | TGI (A549 NSCLC): > 100 µM | TGI (ACHN renal): > 100 µM | TGI (CCRF-CEM leukemia): > 100 µM | TGI (COLO 205 colon): > 100 µM | TGI (DLD-1 colon): > 100 µM | TGI (DMS 273 small cell lung): > 100 µM | TGI (EKVX NSCLC): > 100 µM | TGI (HCC-2998 colon): > 100 µM | TGI (HCT-116 colon): > 100 µM | TGI (HCT-15 colon): > 100 µM | TGI (HL-60(TB) leukemia): > 100 µM | TGI (HOP-18 NSCLC): > 100 µM | TGI (HOP-92 NSCLC): > 100 µM | TGI (HT29 colon): > 100 µM | TGI (IGROV1 ovarian): > 100 µM | TGI (K-562 leukemia): > 100 µM | TGI (KM12 colon): > 100 µM | TGI (KM20L2 colon): > 100 µM | TGI (LOX IMVI melanoma): > 100 µM | TGI (LXFL 529 NSCLC): > 100 µM | TGI (M14 melanoma): > 100 µM | TGI (M19-MEL melanoma): > 100 µM | TGI (MALME-3M melanoma): > 100 µM | TGI (MOLT-4 leukemia): > 100 µM | TGI (NCI-H226 lung): > 100 µM | TGI (NCI-H23 lung): > 100 µM | TGI (NCI-H460 lung): > 100 µM | TGI (NCI-H522 lung): > 100 µM | TGI (OVCAR-3 ovarian): > 100 µM | TGI (OVCAR-4 ovarian): > 100 µM | TGI (OVCAR-5 ovarian): > 100 µM | TGI (OVCAR-8 ovarian): > 100 µM | TGI (RPMI-8226 leukemia): > 100 µM | TGI (RXF 393 renal): > 100 µM | TGI (SF-268 CNS): > 100 µM | TGI (SF-295 CNS): > 100 µM | TGI (SF-539 CNS): > 100 µM | TGI (SK-MEL-2 melanoma): > 100 µM | TGI (SK-MEL-28 melanoma): > 100 µM | TGI (SK-MEL-5 melanoma): > 100 µM | TGI (SK-OV-3 ovarian): > 100 µM | TGI (SN12C renal): > 100 µM | TGI (SNB-19 CNS): > 100 µM | TGI (SNB-75 CNS): > 100 µM | TGI (SNB-78 CNS): > 100 µM | TGI (SR leukemia): > 100 µM | TGI (SW-620 colon): > 100 µM | TGI (TK-10 renal): > 100 µM | TGI (U251 CNS): > 100 µM | TGI (UACC-257 melanoma): > 100 µM | TGI (UACC-62 melanoma): > 100 µM | TGI (UO-31 renal): > 100 µM | TGI (XF 498 CNS): > 100 µM
